Laboratory results: US11021481B2, “Substituted isoindolin-1-ones and 2,3-dihydro-1h-pyrrolo[3,4-c]pyridin-1-ones as HPK1 antagonists” (Nimbus Saturn, Inc., priority 2019, dated 2021)
Where a name gives a salt, the structure may show the parent alone.

target: HPK1 (Homo sapiens (Human), UniProt Q92918); assay: HPK1 biochemical enzyme assay (microfluidic mobility shift assay); conditions: 1.5 nM HPK1, ATP 1 mM final, 30 min preincubation, 60 min at RT, Caliper EZ Reader; read-out: HPK1 1000UMATP caliper IC50
Procedure, shortened: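 Mobility shift readout of HPK1 activity after a 60 min RT reaction with 1 mM ATP, 1 μM substrate and 5 mM MgCl2. Enzyme/substrate mix was first exposed to compounds for 30 min, using ten-point curves topping at 3 μM final.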

Sequence of HPK1 (Q92918 whole entry): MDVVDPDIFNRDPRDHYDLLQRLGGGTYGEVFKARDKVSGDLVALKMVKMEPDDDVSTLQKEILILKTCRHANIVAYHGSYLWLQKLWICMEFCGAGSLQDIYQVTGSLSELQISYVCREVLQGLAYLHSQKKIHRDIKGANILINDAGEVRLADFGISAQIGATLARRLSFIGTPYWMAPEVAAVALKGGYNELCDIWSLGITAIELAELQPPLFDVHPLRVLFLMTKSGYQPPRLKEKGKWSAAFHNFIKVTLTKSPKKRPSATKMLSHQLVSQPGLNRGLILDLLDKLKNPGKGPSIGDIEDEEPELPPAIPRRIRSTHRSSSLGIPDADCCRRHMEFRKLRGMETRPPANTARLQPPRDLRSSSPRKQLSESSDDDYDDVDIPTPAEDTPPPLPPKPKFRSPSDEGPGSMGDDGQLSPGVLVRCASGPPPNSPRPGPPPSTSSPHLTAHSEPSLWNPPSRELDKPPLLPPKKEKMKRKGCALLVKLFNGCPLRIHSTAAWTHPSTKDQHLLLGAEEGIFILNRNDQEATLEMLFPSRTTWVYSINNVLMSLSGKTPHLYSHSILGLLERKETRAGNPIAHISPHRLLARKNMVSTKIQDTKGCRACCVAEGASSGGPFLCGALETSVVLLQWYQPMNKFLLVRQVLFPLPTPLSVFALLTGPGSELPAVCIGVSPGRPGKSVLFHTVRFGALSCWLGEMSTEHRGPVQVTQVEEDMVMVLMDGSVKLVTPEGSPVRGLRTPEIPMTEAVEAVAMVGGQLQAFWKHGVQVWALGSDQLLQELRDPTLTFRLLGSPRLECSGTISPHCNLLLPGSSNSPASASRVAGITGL

| IC50 | Structure (SMILES) |
| --- | --- |
| < 0.1 µM | Cc1ccn2c(-c3ccc(Nc4ccc(N5CCC(O)(CN6CCN(C)CC6)CC5)cn4)c4c3CNC4=O)cnc2c1F [I-444, 4-(8-fluoro-7-methylimidazo [1,2-a]pyridin-3-yl)-7-((5-(4-hydroxy-4-((4-methylpiperazin-1-yl)methyl)piper-idin-1-yl)pyridin-2-yl)amino)isoin-dolin-1-one] |
| 0.1 to 1 µM | O=C1NCc2c(-c3cnn4c3CCCC4)ccc(Nc3ccc(N4CCC[C@@]5(CCNC5=O)C4)cn3)c21 [I-445, (R)-7-(6-((3-oxo-7-(4,5,6,7-tetrahydropyra-zolo[1,5-a]pyridin-3-yl)isoindolin-4-yl)amino)pyri-din-3-yl)-2,7-diazaspiro[4.5] decan-1-one] |
| < 0.1 µM | O=C1NCc2c(-c3cnn4c3CCCC4)ccc(Nc3ccc(N4CCC[C@]5(CCNC5=O)C4)cn3)c21 [I-446, (S)-7-(6-((3-oxo-7-(4,5,6,7-tetrahydropyra-zolo[1,5-a]pyridin-3-yl)isoindolin-4-yl)amino)pyri-din-3-yl)-2,7-diazaspiro[4.5] decan-1-one] |
| < 0.1 µM | O=C1NCc2c(-c3cnc4cc(Cl)ccn34)ccc(Nc3ccc(N4CCC(O)(CN5CCOCC5)CC4)cn3)c21 [I-447, 4-(7-chloroimidazo [1,2-a]pyridin-3-yl)-7-((5-(4-hydroxy-4-(morpholino-methyl)piperidin-1-yl)pyridin-2-yl)amino)isoin-dolin-1-one] |
| 0.1 to 1 µM | Cn1cc2ncc(-c3ccc(Nc4ccc(N5CCC(O)CC5)cn4)c4c3CNC4=O)c-2cn1 [I-448, 7-((5-(4-hydroxy-piperidin-1-yl)pyridin-2-yl)amino)-4-(6-methyl-6H-pyrrolo[2,3-d]pyridazin-3-yl)isoindolin-1-one] |
| < 0.1 µM | CNC1CN(c2cccc(Nc3cnc(-c4ccnc5c4ccn5C)c4c3C(=O)NC4)n2)C1 [I-449, 7-[[6-[3-(methylamino)azetidin-1-yl]-2-pyridyl]amino]-4-(1-methylpyrrolo [2,3-b]pyridin-4-yl)-2,3-dihydropyrrolo [3,4-c]pyridin-1-one Formic acid salt] |
| < 0.1 µM | O=C1NCc2c(-c3cnc4cc(F)ccn34)ccc(Nc3ccc(N4CCO[C@@H](CO)C4)cn3)c21 [I-450, 4-(7-fluoroimidazo [1,2-a]pyridin-3-yl)-7-[[5-[(2R)-2-(hydroxymeth-yl)morpholin-4-yl]-2-pyridyl]amino] isoindolin-1-one] |
| < 0.1 µM | CN1CCN(c2cccc(Nc3cnc(-c4cnc5ccccn45)c4c3C(=O)NC4)n2)CC1 [I-451, 4-imidazo[1,2-a]pyridin-3-yl-7-[[6-(4-methylpiperazin-1-yl)-2-pyridyl]amino]-2,3-dihydropyrrolo [3,4-c]pyridin-1-one Bis formate] |
| < 0.1 µM | Cc1ccn2c(-c3ccc(Nc4ccc(N5CCO[C@H](CO)C5)cn4)c4c3CNC4=O)cnc2n1 [I-452, 7-[[5-[(2S)-2-(hydroxymeth-yl)morpholin-4-yl]-2-pyridyl]amino]-4-(7-methylimidazo [1,2-a]pyrimidin-3-yl)isoindolin-1-one] |
| < 0.1 µM | CNC1CCN(c2ccc(Nc3cnc(-c4ccnc5c4ccn5C)c4c3C(=O)NC4)nc2)CC1(F)F (centres unmarked) [I-453, 7-[[5-[3,3-difluoro-4-(methylamino)-1-piperidyl]-2-pyridyl]amino]-4-(1-methylpyrrolo [2,3-b]pyridin-4-yl)-2,3-dihydropyrrolo [3,4-c]pyridin-1-one] |
| < 0.1 µM | O=C1NCc2c(-c3cnc4cc(F)ccn34)ccc(Nc3ccc(N4CCO[C@H](CO)C4)cn3)c21 [I-454, 4-(7-fluoroimidazo [1,2-a]pyridin-3-yl)-7-[[5-[(2S)-2-(hydroxymeth-yl)morpliolin-4-yl]-2-pyridyl]amino] isoindolin-1-one] |
| 0.1 to 1 µM | COC1CCN(c2ccc(Nc3cnc(-c4cnc5c(F)cccn45)c4c3C(=O)NC4)nc2)CC1 [I-455, 4-(8-fluoroimidazo [1,2-a]pyridin-3-yl)-7-[[5-(4-methoxy-1-piperidyl)-2-pyridyl]amino]-2,3-dihydropyrrolo [3,4-c]pyridin-1-one] |
| < 0.1 µM | Cc1ccn2c(-c3ccc(Nc4ccc(C(C)(C)C(=O)NCCN(C)C)cn4)c4c3CNC4=O)cnc2c1F [I-456, N-[2-(dimethylami-no)ethyl]-2-[6-[[7-(8-fluoro-7-methyl-imidazo[1,2-a]pyridin-3-yl)-3-oxo-isoindolin-4-yl]amino]-3-pyridyl]-2-methyl-propanamide] |
| < 0.1 µM | CC(C)(O)[C@@H]1CN(c2ccc(Nc3ccc(-c4cnc5cnccn45)c4c3C(=O)NC4)nc2)CCO1 [I-457, 7-[[5-[(2S)-2-(1-hydroxy-1-methyl-ethyl)morpholin-4-yl]-2-pyridyl]amino] 4-imidazo[1,2-a]pyrazin-3-yl-isoindolin-1-one] |
| < 0.1 µM | CC(C)(O)[C@H]1CN(c2ccc(Nc3cnc(-c4cnc5c(F)cccn45)c4c3C(=O)NC4)nc2)CCO1 [I-458, 4-(8-fluoroimidazo [1,2-a]pyridin-3-yl)-7-[[5-[(2R)-2-(1-hydroxy-1-methyl-ethyl)morpholin-4-yl]-2-pyridyl]amino]-2,3-dihydropyrrolo [3,4-c]pyridin-l-one] |
| < 0.1 µM | Cn1ccc2c(-c3ncc(Nc4ccc(N5CCO[C@@H](C(C)(C)O)C5)cn4)c4c3CNC4=O)ccnc21 [I-459] |
| < 0.1 µM | Cc1ccn2c(-c3ccc(Nc4ccc(N5CCO[C@@H](CO)C5)cn4)c4c3CNC4=O)cnc2c1F [I-460, 4-(8-fluoro-7-methyl-imidazo[1,2-a]pyridin-3-yl)-7-[[5-[(2R)-2-(hydroxymeth-yl)morpholin-4-yl]-2-pyridyl]amino] isoindolin-1-one] |
| < 0.1 µM | CC(C)(O)[C@H]1CN(c2ccc(Nc3cnc(-c4cnc5c(Cl)cccn45)c4c3C(=O)NC4)nc2)CCO1 [I-462] |
| < 0.1 µM | Cc1ccn2c(-c3ccc(Nc4ccc(N5CCO[C@H](C(C)(C)O)C5)cn4)c4c3CNC4=O)cnc2c1F [I-463, 4-(8-fluoro-7-methyl-imidazol [1,2-a]pyridin-3-yl)-7-[[5-[(2S)-2-(1-hydroxy-1-methyl-ethyl)morpholin-4-yl]-2-pyridyl]amino]isoindolin-1-one] |
| < 0.1 µM | O=C1NCc2c(-c3cnn4ccccc34)ncc(Nc3ccc(N4CCC(O)CC4)cn3)c21 [I-464, 7-[[5-(4-hydroxy-1-piperidyl)-2-pyridyl]amino] 4-pyrazolo[1,5-a]pyridin-3-yl-2,3-dihydropyrrolo [3,4-c]pyridin-l-one] |
| < 0.1 µM | O=C1NCc2c(-c3cnn4cc(F)ccc34)ccc(Nc3ccc(N4CCC(O)CC4)cn3)c21 [I-465, 4-(6-fluoropyrazolo [1,5-a]pyridin-3-yl)-7-[[5-(4-hydroxy-1-piperidyl)-2-pyridyl]amino] isoindolin-1-one] |
| < 0.1 µM | Cc1ccn2c(-c3ncc(Nc4ccc(N5CCO[C@@H](C(C)(C)O)C5)cn4)c4c3CNC4=O)cnc2c1F [I-467, 4-(8-fluoro-7-methyl-imidazo[1,2-a]pyridin-3-yl)-7-[[5-[(2R)-2-(1-hydroxy-1-methyl-ethyl)morpholin-4-yl]-2-pyridyl]amino]-2,3-dihydropyrrolo [3,4-c]pyridin-l-one] |

| Structure (SMILES) | IC50 |
| --- | --- |
| COc1cccn2c(-c3ncc(Nc4ccc(N5CCC[C@H](C(C)(C)O)C5)cn4)c4c3CNC4=O)cnc12 [I-461, 7-[[5-[(3S)-3-(1-hydroxy-1-methylethyl)-1-piperipyl]-2-pyridyl]amino]-4-(8-methoxyimi-dazo[1,2-a]pyridin-3-yl)-2,3-dihydro-pyrrolo[3,4-c]pyridin-1-one] | < 0.1 µM |
